Source: patent US9724350B2, “N,6-bis(aryl or heteroaryl)-1,3,5-triazine-2,4-diamine compounds as IDH2 mutants inhibitors for the treatment of cancer” (Agios Pharmaceuticals, Inc., priority 2013, dated 2017)

Tests used:
[1] = biological target: T1, IDH2 R140Q (Homo sapiens, UniProt P48735, R140Q); assay: IDH2 R140Q enzymatic assay (cofactor depletion, diaphorase/resazurin); type: biochemical; conditions: 16 hours preincubation time
T1 sequence (P48735 40-452 R140Q): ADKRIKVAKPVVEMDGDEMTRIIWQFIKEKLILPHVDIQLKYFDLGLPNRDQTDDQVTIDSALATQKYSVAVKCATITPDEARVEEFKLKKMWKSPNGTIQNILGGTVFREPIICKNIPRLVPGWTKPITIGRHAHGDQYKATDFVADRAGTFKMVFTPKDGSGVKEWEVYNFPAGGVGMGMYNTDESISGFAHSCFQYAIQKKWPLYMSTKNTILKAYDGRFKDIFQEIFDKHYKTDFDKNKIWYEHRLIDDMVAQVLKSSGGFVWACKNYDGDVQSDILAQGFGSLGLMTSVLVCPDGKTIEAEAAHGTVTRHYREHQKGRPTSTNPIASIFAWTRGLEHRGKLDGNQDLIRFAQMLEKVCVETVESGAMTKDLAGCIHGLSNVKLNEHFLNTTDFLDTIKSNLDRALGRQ

[2] = test system: U87MG pLVX-IDH2 R140Q-neo cells; assay: U87MG pLVX-IDH2 R140Q-neo cell based assay (2-HG by LC-MS); conditions: Homo sapiens, U-87 MG
Experimental: U87MG pLVX-IDH2 R140Q-neo cells are grown in T125 flasks in DMEM containing 10% FBS, 1× penicillin/streptomycin and 500 μg/mL G418. They are harvested by trypsin and seeded into 96 well white bottom plates at a density of 5000 cell/well in 100 μl/well in DMEM with 10% FBS. No cells are plated in columns 1 and 12. Cells are incubated overnight at 37° C. in 5% CO2. The next day compounds are made up at 2× concentration and 100 ul are added to each cell well. The final concentration of DMSO is 0.2% and the DMSO control wells are plated in row G. The plates are then placed in the incubator for 48 hours. At 48 hours, 100 ul of media is removed from each well and analyzed by LC-MS for 2-HG concentrations. The cell plate is placed back in the incubator for another 24 hours. At 72 hours post compound addition, 10 mL/plate of Promega Cell Titer Glo reagent is thawed and mixed. The cell plate is removed from the incubator and allowed to equilibrate to room temperature. Then 100 ul of reagent is added to each well of media. The cell plate is then placed on an orbital shaker for 10 minutes and then allowed to sit at room temperature for 20 minutes. The plate is then read for luminescence with an integration time of 500 ms to determine compound effects on growth inhibition.

Structure (SMILES): Nc1nc(Nc2ccnc(C(F)(F)F)c2)nc(-c2cccc(C(F)(F)F)n2)n1 [Compound 378, 6-(6-(trifluoromethyl)pyridin-2-yl)-N2-(2-(trifluoromethyl)pyridin-4-yl)-1,3,5-triazine-2,4-diamine]
- IC50 [1]: < 0.05 µM
- IC50 [2]: < 0.05 µM
